Assay results reported in patent publication US20050191247A1, “Chlorhexidine compositions” (priority 2004, published 2005).
Read-outs that look alike come from different tables or passages of the source. Peptide text beside a SMILES is read from it.

What was measured:
Suspensions of S. mutans = test: Bactericidal activity in suspensions of S. mutans; assay type: cell-based, Streptococcus mutans; details: within one hour of incubation; buffer control 10^6 cfu/ml
S. mutans = test: Test B: effect on ability of S. mutans to produce acid (culture pH over time); assay type: cell-based, Streptococcus mutans; details: chlorhexidine 0.06%, cupric acetate and zinc chloride 0.1% w/v; TSB-YE with 1.0% glucose
Method: Some oral bacteria are believed to cause cavities by producing acid in the mouth. Therefore, the ability of a composition to prevent and treat cavities can be measured by determining its effects on bacterial acid production.
Accordingly, the effect of representative compositions on the ability of S. mutans to produce acid was also assessed. Biofilms were exposed to CHX-Cu^++ or CHX-Zn^++ as described, then washed, harvested, and resuspended in sterile TSB-YE supplemented with 1.0% glucose at standardized concentrations. Changes in culture pH were measured over time. Representative results of these studies are illustrated in FIG. 3.
The chlorhexidine (CHX) used in the experiments depicted in FIG. 3 was made by diluting a chlorhexidine gluconate stock solution (Chlorhexidine gluconate 20% solution, B.P. supplied by Medisca, Inc., 661 Route #3, Unit C, Plattsburg, N.Y. 12901. Telephone 1-800-932-1039) with ultrapure water to form a 0.12% chlorhexidine digluconate solution. This strength mimics the concentration of chlorhexidine gluconate found in commercial rinses (Peridex®—Zila Pharmaceuticals 5227 N. 7th Street, Phoenix, Ariz. 85014. Telephone (602) 266-6700) available in the United States.
Chlorhexidine was at a concentration of 0.06%, and cupric acetate and zinc chloride were at concentrations of 0.1% w/v. Exposure of chlorhexidine alone had little effect on acid production. […]

[1] = 0.12% rinse; Drug Facts and Comparisons, 1999; cited from earlier work
[2] = cited from earlier work
[3] = test system: Streptococcus mutans biofilms; test: Test A: bactericidal activity in bacterial biofilm system; assay type: cell-based; details: flavoring or sweetening agent added to chlorhexidine composition
Method: Rinse formulations were assessed for their bactericidal activity in a laboratory bacterial biofilm system. Streptococcus mutans biofilms were grown on slides in Trypticase Soy Broth supplemented with 0.5% Yeast Extract (TSB-YE), 1.0% glucose and 2.0% sucrose, and incubated for 48 hr in 5% CO2 at 37° C. Biofilms were exposed to the different formulations for 30 seconds with slow stirring. Biofilms were then extensively washed, harvested, and resuspended in fresh media. Samples were spiral-plated on Mitis-Salivarius agar. Numbers of viable bacteria were determined following standard spiral plating methodology.
The first series of experiments explored the effect of combinations of chlorhexidine-Cu^++ and chlorhexidine-Zn^++ on biofilms of Streptococcus mutans. The chlorhexidine (CHX) used in the experiments depicted in FIG. 1 was made by diluting a chlorhexidine gluconate stock solution (Chlorhexidine gluconate 20% solution, B.P. supplied by Medisca, Inc., 661 Route #3, Unit C, Plattsburg, N.Y. 12901. Telephone 1-800-932-1039) with ultrapure water to form a 0.12% chlorhexidine digluconate solution. […]
Biofilms of S. mutans were made by immersing slides in Trypticase Soy Broth-Yeast Extract (TSB-YE) supplemented with 1.0% glucose and 2.0% sucrose. […] Numbers of viable cells were determined by standard Spiral-plating methodology. […]

N=C(NCCCCCCNC(=N)NC(=N)Nc1ccc(Cl)cc1)NC(=N)Nc1ccc(Cl)cc1.O=C(O)[C@H](O)[C@@H](O)[C@H](O)[C@H](O)CO.O=C(O)[C@H](O)[C@@H](O)[C@H](O)[C@H](O)CO [Chlorhexidine gluconate (0.12% CHX)]
viable count after exposure (Suspensions of S. mutans): 0 cfu/ml

[H]/N=C(\N/C(=N/[H])NCCCCCCNC(=N)NC(=N)Nc1ccc(Cl)cc1)Nc1ccc(Cl)cc1 [chlorhexidine]
effect on acid production (pH curves) (S. mutans): little effect | chlorhexidine retained in the oral cavity following rinsing [1]: Approximately 30%

COC(=O)[C@H](Cc1ccccc1)NC(=O)[C@@H](N)CC(=O)O [aspartame] (HELM PEPTIDE1{D.F.[CO[*:1]]}$$$$V2.0)
solubility in water ([2]; 20° C.): approximately 1% | solubility in water ([2]; 50° C.): ~3% | effect of additive on the antibacterial activity of the chlorhexidine oral composition [3]: do not significantly decrease
